Here are results for 20 compounds from US20200016159A1, “N3-CYCLICALLY SUBSTITUTED THIENOURACILS AND USE THEREOF” (Bayer Aktiengesellschaft, priority 2016, published 2020).

In the test the target is T1, human adenosine A2b receptor (Homo sapiens, UniProt P29275).
T1 sequence (P29275 1-332): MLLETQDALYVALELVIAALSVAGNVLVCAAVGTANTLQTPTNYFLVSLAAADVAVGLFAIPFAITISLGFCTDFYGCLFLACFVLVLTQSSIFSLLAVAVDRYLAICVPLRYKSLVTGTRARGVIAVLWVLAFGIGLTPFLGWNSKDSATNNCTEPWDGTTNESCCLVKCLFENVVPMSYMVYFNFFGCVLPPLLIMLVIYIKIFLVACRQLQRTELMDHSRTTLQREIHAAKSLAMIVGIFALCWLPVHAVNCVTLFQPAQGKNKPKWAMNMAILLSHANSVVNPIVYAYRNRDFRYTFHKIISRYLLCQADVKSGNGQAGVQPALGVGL
Description: Cellular in vitro reporter gene test for A2b receptor activity (antagonism of NECA). The test is classed as cell-based. The arrangement: expressed in transfected cells; host or cells: CHO-K1 (Chinese hamster ovary) with CRE-luciferase reporter. Conditions: recombinant CHO-K1 cells, CRE-luciferase reporter, co-incubation with EC50 concentration of NECA, 3 hours. The method in brief: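 Antagonism measured as block of NECA-induced, cAMP/CRE-dependent luciferase expression in recombinant A2b CHO-K1 cells. NECA used at the EC50 set in a pre-experiment on each test day; luminescence detected after 3 h. Reported as IC50, partly averaged and rounded to two significant figures.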
In general, IC50 refers to the point on the concentration scale where inhibition reaches its midpoint. With `Cc1c(Cn2nc[nH]c2=O)sc2c1c(=O)n(C1(C)CC1)c(=O)n2CCC(F)(F)F` [Example 60, 5-Methyl-3-(1-methylcyclopropyl)-6-[(5-oxo-4,5-dihydro-1H-1,2,4-triazol-1-yl)methyl]-1-(3,3,3-trifluoropropyl)thieno[2,3-d]pyrimidine-2,4(1H,3H)-dione], the half-maximal inhibitory concentration (IC50) is 15 nM.
The result for `Cc1c(Cn2nc[nH]c2=O)sc2c1c(=O)n(C1CC1)c(=O)n2CC1CCCC1(F)F` (single isomer, unassigned) [Example 208, 3-Cyclopropyl-1-[(2,2-difluorocyclopentyl)methyl]-5-methyl-6-[(5-oxo-4,5-dihydro-1H-1,2,4-triazol-1-yl)methyl]thieno[2,3-d]pyrimidine-2,4(1H,3H)-dione] reads 10 nM.
Regarding `Cc1c(CN2CCNC(=O)C2=O)sc2c1c(=O)n(C1(C)CC1)c(=O)n2CCC(F)(F)F` [Example 59, 6-[(2,3-Dioxopiperazin-1-yl)methyl]-5-methyl-3-(1-methylcyclopropyl)-1-(3,3,3-trifluoropropyl)thieno[2,3-d]pyrimidine-2,4(1H,3H)-dione], the IC50 stood at 9.3 nM.
The value for `Cc1c(Cn2nc[nH]c2=O)sc2c1c(=O)n(C1(C)CC1)c(=O)n2C` [Example 53, 1,5-Dimethyl-3-(1-methylcyclopropyl)-6-[(5-oxo-4,5-dihydro-1H-1,2,4-triazol-1-yl)methyl]thieno[2,3-d]pyrimidine-2,4(1H,3H)-dione] was 120 nM.
In the case of `CCn1c(=O)n(C2CC2C)c(=O)c2c(C)c(CN3CCNC3=O)sc21` (racemic) [Example 224, 1-Ethyl-5-methyl-3-(2-methylcyclopropyl)-6-[(2-oxoimidazolidin-1-yl)methyl]thieno[2,3-d]pyrimidine-2,4(1H,3H)-dione], the IC50 was found to be 11 nM.
As to `COC(=O)N=C1NCCN1Cc1sc2c(c1C)c(=O)n(C1CC1)c(=O)n2CC1CCCO1` (racemic) [Example 42, Methyl [1-{[3-cyclopropyl-5-methyl-2,4-dioxo-1-(tetrahydrofuran-2-ylmethyl)-1,2,3,4-tetrahydrothieno[2,3-d]pyrimidin-6-yl]methyl}imidazolidin-2-ylidene]carbamate], the 50% inhibitory concentration (IC50) was found to be 10 nM.
`Cc1c(Cn2nc[nH]c2=O)sc2c1c(=O)n(C1CC1)c(=O)n2CC(F)F` [Example 199, 3-Cyclopropyl-1-(2,2-difluoroethyl)-5-methyl-6-[(5-oxo-4,5-dihydro-H-1,2,4-triazol-1-yl)methyl]thieno[2,3-d]pyrimidine-2,4(1H,3H)-dione]: the concentration for half-maximal inhibition (IC50) was found to be 130 nM.
The result for `Cc1c(Cn2nc[nH]c2=O)sc2c1c(=O)n([C@H]1C[C@@H]1C)c(=O)n2C` [Example 220, 1,5-Dimethyl-3-[(1S,2S)-2-methylcyclopropyl]-6-[(5-oxo-4,5-dihydro-1H-1,2,4-triazol-1-yl)methyl]thieno[2,3-d]pyrimidine-2,4(1H,3H)-dione] reads 33 nM; that for `COC(=O)N=C1NCCN1Cc1sc2c(c1C)c(=O)n([C@H]1C[C@H](OC)C1)c(=O)n2CCC(F)(F)F` [Example 146, Methyl [1-{[3-(trans-3-methoxycyclobutyl)-5-methyl-2,4-dioxo-1-(3,3,3-trifluoropropyl)-1,2,3,4-tetrahydrothieno[2,3-d]pyrimidin-6-yl]methyl}imidazolidin-2-ylidene]carbamate], 6.2 nM.
The result for `Cc1c(CN2CCNC2=NC#N)sc2c1c(=O)n(C1CC1)c(=O)n2CCC(F)(F)F` [Example 11, [1-{[3-Cyclopropyl-5-methyl-2,4-dioxo-1-(3,3,3-trifluoropropyl)-1,2,3,4-tetrahydrothieno[2,3-d]pyrimidin-6-yl]methyl}imidazolidin-2-ylidene]cyanamide] reads 3.3 nM; that for `Cc1c(Cn2nc[nH]c2=O)sc2c1c(=O)n(C1CC1)c(=O)n2C[C@H]1CCCO1` [Example 50, 3-Cyclopropyl-5-methyl-6-[(5-oxo-4,5-dihydro-1H-1,2,4-triazol-1-yl)methyl]-1-[(2R)-tetrahydrofuran-2-ylmethyl]thieno[2,3-d]pyrimidine-2,4(1H,3H)-dione], 140 nM; that for `CO[C@H]1C[C@@H](n2c(=O)c3c(C)c(CN4CCNC(=O)C4=O)sc3n(CCC(F)(F)F)c2=O)C1` [Example 157, 6-[(2,3-Dioxopiperazin-1-yl)methyl]-3-(cis-3-methoxycyclobutyl)-5-methyl-1-(3,3,3-trifluoropropyl)thieno[2,3-d]pyrimidine-2,4(1H,3H)-dione], 63 nM.
The result for `Cc1c(CN2CCNC2=O)sc2c1c(=O)n([C@H]1C[C@@H]1C)c(=O)n2CC1CC1(F)F` (stereo partly drawn) [Example 249, 1-[(2,2-Difluorocyclopropyl)methyl]-5-methyl-3-[(1S,2S)-2-methylcyclopropyl]-6-[(2-oxoimidazolidin-1-yl)methyl]thieno[2,3-d]pyrimidine-2,4(1H,3H)-dione] reads 1.9 nM.
As to `COCCn1c(=O)n(C2(C(F)(F)F)CC2)c(=O)c2c(C)c(CN3CCNC(=O)C3=O)sc21` [Example 88, 6-[(2,3-Dioxopiperazin-1-yl)methyl]-1-(2-methoxyethyl)-5-methyl-3-[1-(trifluoromethyl)cyclopropyl]thieno[2,3-d]pyrimidine-2,4(1H,3H)-dione], the half-inhibitory concentration (IC50) came out at 690 nM.
Consider `CCOCCn1c(=O)n(C2(C)CC2)c(=O)c2c(C)c(Cn3nc[nH]c3=O)sc21` [Example 78, 1-(2-Ethoxyethyl)-5-methyl-3-(1-methylcyclopropyl)-6-[(5-oxo-4,5-dihydro-1H-1,2,4-triazol-1-yl)methyl]thieno[2,3-d]pyrimidine-2,4(1H,3H)-dione], for which the 50% inhibitory concentration (IC50) was determined as 560 nM.
`Cc1c(CN2CCNC2=O)sc2c1c(=O)n(C1CC(C)(C)C1)c(=O)n2CCC(F)(F)F` [Example 164, 3-(3,3-Dimethylcyclobutyl)-5-methyl-6-[(2-oxoimidazolidin-1-yl)methyl]-1-(3,3,3-trifluoropropyl)thieno[2,3-d]pyrimidine-2,4(1H,3H)-dione]: the IC50 was 4.6 nM.
The value for `Cc1c(CN2CCNC(=O)C2=O)sc2c1c(=O)n(C1CC1)c(=O)n2CCC(F)(F)F` [Example 13, 3-Cyclopropyl-6-[(2,3-dioxopiperazin-1-yl)methyl]-5-methyl-1-(3,3,3-trifluoropropyl)thieno[2,3-d]pyrimidine-2,4(1H,3H)-dione] was 4 nM.
The value for `Cc1c(CN2CCNC2=O)sc2c1c(=O)n(C1CC1C)c(=O)n2CCCF` (single isomer, unassigned) [Example 92, 1-(3-Fluoropropyl)-5-methyl-3-(2-methylcyclopropyl)-6-[(2-oxoimidazolidin-1-yl)methyl]thieno[2,3-d]pyrimidine-2,4(1H,3H)-dione] was 2.8 nM; that for `COC(=O)N=C1NCCN1Cc1sc2c(c1C)c(=O)n(C1CCC1)c(=O)n2CCC(F)(F)F` [Example 112, Methyl [1-{[3-cyclobutyl-5-methyl-2,4-dioxo-1-(3,3,3-trifluoropropyl)-1,2,3,4-tetrahydrothieno[2,3-d]pyrimidin-6-yl]methyl}imidazolidin-2-ylidene]carbamate] was 1.2 nM.
The result for `Cc1c(CN2CCNC2=O)sc2c1c(=O)n(C1CC1C)c(=O)n2CCF` (single isomer, unassigned) [Example 232, 1-(2-Fluoroethyl)-5-methyl-3-(2-methylcyclopropyl)-6-[(2-oxoimidazolidin-1-yl)methyl]thieno[2,3-d]pyrimidine-2,4(1H,3H)-dione] reads 0.86 nM.
